Assay results published in BindingDB's records for doi:10.1016/S0960-894X(01)80235-3 (1994).
pIC50: −log10 of the molar value.

Biological target: O-acyltransferase (Oryctolagus cuniculus, UniProt G1SFD9)
Assay: ChEBML_28168
Description: In vitro Acyl coenzyme A:cholesterol acyltransferase inhibition by incubation with [14C]oleolyl-CoA and intestinal microsomes isolated from cholesterol-fed rabbits.

Sequence of O-acyltransferase (G1SFD9 1-524): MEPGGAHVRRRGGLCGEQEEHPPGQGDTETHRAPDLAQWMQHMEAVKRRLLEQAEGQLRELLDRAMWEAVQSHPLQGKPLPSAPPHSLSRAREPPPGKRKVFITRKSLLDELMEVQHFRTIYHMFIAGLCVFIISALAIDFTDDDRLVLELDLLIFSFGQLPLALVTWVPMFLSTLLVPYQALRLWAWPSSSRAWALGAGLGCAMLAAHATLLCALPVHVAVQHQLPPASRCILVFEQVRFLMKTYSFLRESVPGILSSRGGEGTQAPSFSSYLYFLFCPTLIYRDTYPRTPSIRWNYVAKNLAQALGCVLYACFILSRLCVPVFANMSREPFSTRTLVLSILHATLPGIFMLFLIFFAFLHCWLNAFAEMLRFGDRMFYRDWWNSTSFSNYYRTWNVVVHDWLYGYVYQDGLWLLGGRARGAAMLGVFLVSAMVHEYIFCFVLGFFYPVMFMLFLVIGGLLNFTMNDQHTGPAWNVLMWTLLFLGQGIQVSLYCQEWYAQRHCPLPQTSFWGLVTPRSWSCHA

| pIC50 | Compound |
| --- | --- |
| 5.30 | CCCCCCCC/C=C\CCCCCCCc1cc(=O)n(-c2ccc(F)cc2F)[nH]1 [2-(2,4-Difluoro-phenyl)-5-((Z)-heptadec-8-enyl)-2,4-dihydro-pyrazol-3-one] |
| 5.30 | CCCCCCCC/C=C\CCCCCCCc1cc(=O)n(-c2ccc(C)cc2C)[nH]1 [2-(2,4-Dimethyl-phenyl)-5-((Z)-heptadec-8-enyl)-2,4-dihydro-pyrazol-3-one] |
| 5.30 | CCCCCCCC/C=C\CCCCCCC[c+]1cc(O)n(-c2ccc([N+](=O)[O-])cc2[N+](=O)[O-])[n-]1 [2-(2,4-Dinitro-phenyl)-5-((Z)-heptadec-8-enyl)-2,4-dihydro-pyrazol-3-one] |
| 5.30 | CCCCCCCCCCc1cc(=O)n(-c2c(C)cccc2C)[nH]1 [5-Decyl-2-(2,6-dimethyl-phenyl)-2,4-dihydro-pyrazol-3-one] |
